Like-named read-outs stand apart in the source and are kept apart here.
Experiments:
KRAS (WT)::SOS1 = KRAS (WT)::SOS1 (Homo sapiens (Human), UniProt P01116, C118S); experiment: KRAS::SOS1 AlphaScreen binding assay, KRAS WT
From the text: This assay can be used to examine the potency with which compounds according to the invention binding to (mutated) KRAS inhibit the protein-protein interaction between SOS1 and (mutated) KRAS e.g., KRAS WT, KRAS G12C, KRAS G12D, KRAS G12V, KRAS G13D. […] Low IC50 values in this assay setting are indicative of strong inhibition of protein-protein interaction between SOS1 and KRAS:
These assays measure the inhibitory effect of compounds on KRAS mutant protein-protein interactions using the Alpha Screen technology by Perkin Elmer.
The following (mutant) enzyme forms of KRAS and interacting proteins are used in these assays at the given concentrations: • KRAS (G12D) 1-169, N-terminal 6His-tag, C-terminal avi-tag (Xtal BioStructures, Inc.); final assay concentration 10 nM and SOS1 564-1049, N-terminal 229 GST-tag, TEV cleavage site (Viva Biotech Ltd); final assay concentration 5 nM; • KRAS (G12C) 1-169, N-terminal 6His-tag for purification, cleaved off, C-terminal avi-tag, biotinylated, mutations: C51S, C80L, C118S (in house); final assay concentration 7.5 nM and SOS1 564-1049, N-terminal 229 GST-tag, TEV cleavage site (Viva Biotech Ltd); final assay concentration 5 nM; • KRAS (G12V) 1-169, N-terminal 6His-tag for purification, cleaved off, C-terminal avi-tag, biotinylated, TEV cleavage site, mutation: C118S, GDP loaded (in house); final assay concentration 10 nM and SOS1 564-1049, N-terminal 229 GST-tag, TEV cleavage site (Viva Biotech Ltd); final assay concentration 10 nM; • KRAS (G13D) 1-169, N-terminal 6His-tag for purification, cleaved off, C-terminal avi-tag, biotinylated, TEV cleavage site, mutation: C118S, GDP loaded (in house); final assay concentration 10 nM and SOS1 564-1049, N-terminal 229 GST-tag, TEV cleavage site (Viva Biotech Ltd); final assay concentration 10 nM; • KRAS (WT) 1-169, N-terminal 6His-tag for purification, cleaved off, C-terminal avi-tag, biotinylated, TEV cleavage site, mutation: C118S, GDP loaded (in house); final assay concentration 10 nM and SOS1 564-1049, N-terminal 229 GST-tag, TEV cleavage site (Viva Biotech Ltd); final assay concentration 10 nM.
Test compounds dissolved in DMSO are dispensed onto assay plates (Proxiplate 384 PLUS, white, PerkinElmer; 6008289) using an Access Labcyte Workstation with the Labcyte Echo 55×. For the chosen highest assay concentration of 100 μM, 150 nL of compound solution are transferred from a 10 mM DMSO compound stock solution. A series of eleven fivefold dilutions per compound are transferred to the assay plate, compound dilutions are tested in duplicates. DMSO are added as backfill to a total volume of 150 nL.
The assays run on a fully automated robotic system in a darkened room below 100 Lux. To 150 nl of compound dilution 10 μl of a mix including KRAS mutant protein, SOS1 (final assay concentrations see above) and GDP nucleotide (Sigma G7127; final assay concentration 10 μM) in assay buffer (1×PBS, 0.1% BSA, 0.05% Tween 20) are added into columns 1-24.
After 30 minutes incubation time 5 μl of Alpha Screen bead mix in assay buffer are added into columns 1-23. Bead mix consists of AlphaLISA Glutathione Acceptor Beads (PerkinElmer, Cat No AL109) and AlphaScreen Streptavidin Donor Beads (PerkinElmer Cat No 6760002) in assay buffer at a final assay concentration of 10 μg/ml each.
Plates are kept at room temperature in a darkened incubator. After an additional 60 minutes incubation time the signal is measured in a PerkinElmer Envision HTS Multilabel Reader using the AlphaScreen specs from PerkinElmer.
Each plate contains up to 16 wells of a negative control depending on the dilution procedure (platewise or serial) (DMSO instead of test compound; with KRAS mutant::SOS1 GDP mix and bead mix; column 23) and 16 wells of a positive control (DMSO instead of test compound; with KRAS mutant::SOS1 GDP mix w/o bead mix; column 24).
As internal control known inhibitors of KRAS mutant::SOS1 interaction can be measured on each compound plate. […]

CYP3A4 = CYP3A4 (Homo sapiens (Human), UniProt P08684); experiment: Mechanism based inhibition of CYP3A4 assay (MBI 3A4); type: in vitro ADME; settings: hydroxy-midazolam formation after 30 min vs 0 min preincubation, 25 uM, human liver microsomes
CYP3A4, sequence (P08684 whole entry): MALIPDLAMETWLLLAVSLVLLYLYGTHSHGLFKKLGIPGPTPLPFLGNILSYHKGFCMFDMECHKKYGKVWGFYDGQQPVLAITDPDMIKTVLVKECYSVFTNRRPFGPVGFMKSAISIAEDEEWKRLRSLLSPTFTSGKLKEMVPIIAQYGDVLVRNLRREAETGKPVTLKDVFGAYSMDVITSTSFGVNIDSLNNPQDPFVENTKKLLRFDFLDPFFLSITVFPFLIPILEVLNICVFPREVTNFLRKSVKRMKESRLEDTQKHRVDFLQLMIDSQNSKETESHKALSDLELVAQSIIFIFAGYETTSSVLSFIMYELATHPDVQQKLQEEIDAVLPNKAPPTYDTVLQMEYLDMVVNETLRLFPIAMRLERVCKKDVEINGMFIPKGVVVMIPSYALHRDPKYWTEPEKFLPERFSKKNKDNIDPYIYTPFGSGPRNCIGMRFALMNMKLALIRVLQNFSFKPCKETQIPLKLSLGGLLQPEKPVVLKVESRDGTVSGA
How it was run: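 Readout is hydroxy-midazolam formed after 30 min preincubation relative to 0 min, measured by LC/MS-MS after acetonitrile quench. Following preincubation, samples diluted 1:10 and incubated 15 min with midazolam substrate.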

MKN1 cells = experiment: MKN1 CTG proliferation assay (120 h) (gastric cancer, wt amplified); type: cell-based
How it was run: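 MKN1 gastric cancer cells (200–500 per well, RPMI + 10% FCS) given a logarithmic compound dose series and incubated 120 h. Viability by CellTiter-Glo luminescence as percent of DMSO controls. IC50 by four-parameter non-linear regression.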

[1] = Homo sapiens, MKN-1, assay 1, CTG 120 h, read-out: MKN1 (assay 1) IC50
[2] = Homo sapiens, MKN-1, assay 3, CTG 120 h, read-out: MKN1 (assay 3) IC50
[3] = Homo sapiens, MKN-1, assay 2, CTG 120 h, read-out: MKN1 (assay 2) IC50

KRAS (WT)::SOS1, sequence (P01116 other isoform, or with tags, fused parts or gaps C118S): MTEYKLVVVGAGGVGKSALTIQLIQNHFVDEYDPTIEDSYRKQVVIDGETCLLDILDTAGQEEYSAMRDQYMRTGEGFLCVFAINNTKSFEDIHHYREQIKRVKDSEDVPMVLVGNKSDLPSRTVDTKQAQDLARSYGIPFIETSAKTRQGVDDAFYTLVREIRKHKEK

Row | IC50 (KRAS (WT)::SOS1) [nM] | MBI 3A4 (CYP3A4) [%] | IC50 (MKN1 cells; [1]) [nM] | IC50 (MKN1 cells; [2]) [nM] | IC50 (MKN1 cells; [3]) [nM] | Structure (SMILES) | IC50 (MKN1 cells; assay 3, CTG 120 h, read-out: MKN1 (assay 3) IC50) [nM]
1 | 9 | 68 |  |  |  | C[C@H](Oc1cc(-n2cc(-c3cncs3)nn2)nc(-c2noc3c2CCC[C@@]32CCCc3sc(N)c(C#N)c32)n1)[C@@H]1CCCN1C [II-125] | 
2 | 5 | 67 | 216 | 297 |  | C[C@H](Oc1cc(-n2ccc(-c3cnccn3)n2)nc(-c2noc3c2CCC[C@@]32CCCc3sc(N)c(C#N)c32)n1)[C@@H]1CCCN1C [II-130] | 
3 | 8 |  |  | 391 |  | C[C@H](Oc1cc(-c2cccc(C(N)=O)c2)nc(-c2noc3c2CCC[C@@]32CCCc3sc(N)c(C#N)c32)n1)[C@@H]1CCCN1C [II-133] | 
4 | 3 | 88 |  |  |  | C[C@H](Oc1cc(-n2cc3c(n2)CCN(C)C3)nc(-c2noc3c2CCC[C@@]32CCCc3sc(N)c(C#N)c32)n1)[C@@H]1CCCN1C [II-141] | 
5 | 5 | 55 |  |  |  | C[C@H](Oc1cc(N2CCN(C)C3(COC3)C2)nc(-c2noc3c2CCC[C@@]32CCCc3sc(N)c(C#N)c32)n1)[C@@H]1C[C@@H](F)CN1C [II-148] | 
6 | 12 | 42 |  |  | 467 | C[C@H](Oc1cc(N2CCN(C)C3(CC3)C2)nc(-c2noc3c2CCC[C@@]32CCCc3sc(N)c(C#N)c32)n1)[C@@H]1C[C@@H](F)CN1C [II-149] | 
7 | 3 | 49 |  |  | 32 | C[C@H](Oc1cc(N2CCNC3(COC3)C2)nc(-c2noc3c2CCC[C@@]32CCCc3sc(N)c(C#N)c32)n1)[C@@H]1C[C@@H](F)CN1C [II-150] | 
8 | 8 |  |  |  |  | C[C@H](Oc1cc(N2CCN(C)C3(CCOC3)C2)nc(-c2noc3c2CCC[C@@]32CCCc3sc(N)c(C#N)c32)n1)[C@@H]1C[C@@H](F)CN1C (stereo partly shown) [II-151] | 
9 | 14 |  |  |  |  | CO[C@@H]1C[C@@H]([C@H](C)Oc2cc(N3CCN(C)C4(CC4)C3)nc(-c3noc4c3CCC[C@@]43CCCc4sc(N)c(C#N)c43)n2)N(C)C1 [II-152] | 
10 | 4 |  |  | 633 | 284 | C[C@H](Oc1nc(-c2noc3c2CCC[C@@]32CCCc3sc(N)c(C#N)c32)nc(N2CCNC3(CC3)C2)c1F)[C@@H]1C[C@@H](F)CN1C [II-155] | 
11 | 6 |  |  |  |  | C[C@H](Oc1nc(-c2noc3c2CCC[C@@]32CCCc3sc(N)c(C#N)c32)nc(N2CCNC3(CC3)C2)c1Cl)[C@@H]1C[C@@H](F)CN1C [II-156] | 
12 | 5 |  |  |  |  | C[C@H](Oc1nc(-c2noc3c2CCC[C@@]32CCCc3sc(N)c(C#N)c32)nc(N2C[C@H](C)NC3(CC3)C2)c1F)[C@@H]1C[C@@H](F)CN1C [II-157] | 
13 | 4 |  |  |  |  | C[C@@H]1CN(c2nc(-c3noc4c3CCC[C@@]43CCCc4sc(N)c(C#N)c43)nc(O[C@@H](C)[C@@H]3C[C@@H](F)CN3C)c2F)CC2(CC2)N1 [II-158] | 
14 | 8 | 84 |  | 411 |  | C[C@H](Oc1cc(N2CCN[C@@H](C)C2)nc(-c2noc3c2CCC[C@@]32CCCc3sc(N)c(C#N)c32)n1)[C@@H]1CCCN1C [II-162] | 
15 | 8 |  |  | 1070 |  | C[C@H](Oc1cc(C2=CCNCC2)nc(-c2noc3c2CCC[C@@]32CCCc3sc(N)c(C#N)c32)n1)[C@@H]1CCCN1C [II-164] | 
16 | 5 |  |  |  | 427 | C[C@H](Oc1cc(N2CCNC3(CC3)C2)nc(-c2noc3c2CCC[C@@]32CCCc3sc(N)c(C#N)c32)n1)[C@@H]1C[C@@H](F)CN1C [II-165] | 
17 | 3 |  |  | 176 |  | C[C@H](Oc1cc(-n2cc3c(n2)CNC3)nc(-c2noc3c2CCC[C@@]32CCCc3sc(N)c(C#N)c32)n1)[C@@H]1CCCN1C [II-168] | 
18 | 7 | 63 |  |  |  | C[C@H](Oc1cc(N2CCN(C)C3(CC3)C2)nc(-c2noc3c2CCC[C@@]32CCCc3sc(N)c(C#N)c32)n1)[C@@H]1CCCN1C [II-171] | 
19 | 4 |  |  |  | 341 | C[C@H](Oc1cc(-n2cc3c(n2)CN(C)C3)nc(-c2noc3c2CCC[C@@]32CCCc3sc(N)c(C#N)c32)n1)[C@@H]1CCCN1C [II-174] | 
20 | 31 |  |  |  |  | C[C@H](Oc1nc(-c2noc3c2CCC[C@@]32CCCc3sc(N)c(C#N)c32)nc(N2CCN(C)C3(CC3)C2)c1Cl)[C@@H]1C[C@@H](F)CN1C [II-176] | 
21 | 4 |  | 19 | 18 |  | C[C@H](Oc1cc(-n2ccc(C3(O)COC3)n2)nc(-c2noc3c2CCC[C@@]32CCCc3sc(N)c(C#N)c32)n1)[C@@H]1CCCN1C [II-189] | 
22 | 5 | 49 | 25 | 9 | 26 | C[C@H](Oc1cc(-n2ccc(C(=O)N[C@@H]3CCOC3)n2)nc(-c2noc3c2CCC[C@@]32CCCc3sc(N)c(C#N)c32)n1)[C@@H]1CCCN1C [II-192] | 
23 | 3 | 56 |  | 22 |  | COCCNC(=O)c1ccn(-c2cc(O[C@@H](C)[C@@H]3CCCN3C)nc(-c3noc4c3CCC[C@@]43CCCc4sc(N)c(C#N)c43)n2)n1 [II-195] | 
24 | 6 |  |  | 17 |  | CO[C@H]1CCN(C)[C@@H]1[C@H](C)Oc1cc(-n2ccc(C(=O)N[C@@H](C)c3ccccn3)n2)nc(-c2noc3c2CCC[C@@]32CCCc3sc(N)c(C#N)c32)n1 [II-196] | 
25 | 7 |  |  | 37 |  | C[C@H](Oc1cc(-n2ccc(-c3cn(C4CCOCC4)nn3)n2)nc(-c2noc3c2CCC[C@@]32CCCc3sc(N)c(C#N)c32)n1)[C@@H]1CCCN1C [II-210] | 

Row | Structure (SMILES) | IC50 (KRAS (WT)::SOS1) [nM] | MBI 3A4 (CYP3A4) [%] | IC50 (MKN1 cells; [1]) [nM] | IC50 (MKN1 cells; [2]) [nM] | IC50 (MKN1 cells; [3]) [nM] | IC50 (MKN1 cells; assay 3, CTG 120 h, read-out: MKN1 (assay 3) IC50) [nM]
26 | C[C@H](Oc1cc(-n2ccc(C(=O)N[C@H]3CCOC3)n2)nc(-c2noc3c2CCC[C@@]32CCCc3sc(N)c(C#N)c32)n1)[C@@H]1CCCN1C [II-193] | 6 | 61 |  |  |  | 17

Source: patent US20240174690A1, “ANNULATED 2-AMINO-3-CYANO THIOPHENES AND DERIVATIVES FOR THE TREATMENT OF CANCER” (BOEHRINGER INGELHEIM INTERNATIONAL GMBH, priority 2021, published 2024)
